Assay results from patent EP4745135A1 (Gluetacs Therapeutics (Shanghai) Co., Ltd., priority 2023, dated 2025).

Columns and labels:
[1] = target: T1, human Cereblon WT GST-tagged protein (Homo sapiens, UniProt Q96SW2); test: CRBN-binding affinity, HTRF (CEREBLON BINDING kit); settings: for inhibition at 0.5 µM: read-out: Inhibition Rate at 0.5 µM (%); for inhibition at 2 µM: read-out: Inhibition Rate at 2 µM (%)
T1 construct: purchased CISBIO 64BDCRBNPEH

GSPT1 = test: Western blot, degradation of substrate protein in hPBMCs; format: cell-based, Human
IKZF2 = target: T2, IKZF2 (Homo sapiens, UniProt Q96SW2+Q9UKS7); test: as above; format: cell-based
T2 construct: effects of the compounds of the present disclosure on the expression of target proteins in cells; endogenous in cells; host or cells: human PBMCs (Milecell Biotechnologies)

CK1α = target: T3, CK1α (Homo sapiens, UniProt P48729+Q96SW2); test: as above; format: cell-based
T3 construct: effects of the compounds of the present disclosure on the expression of target proteins in cells; endogenous in cells; host or cells: human PBMCs (Milecell Biotechnologies)

IKZF1 = target: T4, IKZF1 (Homo sapiens, UniProt Q13422+Q96SW2); test: as above; format: cell-based
T4 construct: effects of the compounds of the present disclosure on the expression of target proteins in cells; endogenous in cells; host or cells: human PBMCs (Milecell Biotechnologies)

IKZF3 = target: T5, IKZF3 (Homo sapiens, UniProt Q96SW2+Q9UKT9); test: as above; format: cell-based
T5 construct: effects of the compounds of the present disclosure on the expression of target proteins in cells; endogenous in cells; host or cells: human PBMCs (Milecell Biotechnologies)

WEE1 = target: T6, WEE1 (Homo sapiens, UniProt P30291+Q96SW2); test: as above; format: cell-based
T6 construct: effects of the compounds of the present disclosure on the expression of target proteins in cells; endogenous in cells; host or cells: human PBMCs (Milecell Biotechnologies)

[2] = Western blot, 24 hours of compound treatment, compounds tested at 50 nM and 500 nM (concentration for the table not stated)
[3] = 24 hours treatment, compounds at 50 nM and 500 nM (concentration behind the class not stated)

T6 sequence (P30291 whole entry): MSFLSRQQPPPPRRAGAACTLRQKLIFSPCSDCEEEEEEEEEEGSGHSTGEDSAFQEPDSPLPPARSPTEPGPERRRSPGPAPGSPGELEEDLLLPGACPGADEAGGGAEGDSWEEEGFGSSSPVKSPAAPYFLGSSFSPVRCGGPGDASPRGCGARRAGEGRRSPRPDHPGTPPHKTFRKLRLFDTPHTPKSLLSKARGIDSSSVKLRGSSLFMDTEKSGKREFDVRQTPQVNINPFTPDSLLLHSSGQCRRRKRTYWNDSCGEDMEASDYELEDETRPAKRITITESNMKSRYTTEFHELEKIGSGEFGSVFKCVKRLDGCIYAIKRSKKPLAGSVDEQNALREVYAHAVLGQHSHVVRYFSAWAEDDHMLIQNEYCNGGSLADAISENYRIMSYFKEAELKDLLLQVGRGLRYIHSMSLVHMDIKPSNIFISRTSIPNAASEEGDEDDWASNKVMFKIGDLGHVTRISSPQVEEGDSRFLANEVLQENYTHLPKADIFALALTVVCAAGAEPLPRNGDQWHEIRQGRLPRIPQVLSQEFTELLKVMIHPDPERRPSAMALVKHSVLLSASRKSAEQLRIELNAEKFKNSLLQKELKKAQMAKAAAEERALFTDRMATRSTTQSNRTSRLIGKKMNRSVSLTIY
T6 sequence (Q96SW2 whole entry): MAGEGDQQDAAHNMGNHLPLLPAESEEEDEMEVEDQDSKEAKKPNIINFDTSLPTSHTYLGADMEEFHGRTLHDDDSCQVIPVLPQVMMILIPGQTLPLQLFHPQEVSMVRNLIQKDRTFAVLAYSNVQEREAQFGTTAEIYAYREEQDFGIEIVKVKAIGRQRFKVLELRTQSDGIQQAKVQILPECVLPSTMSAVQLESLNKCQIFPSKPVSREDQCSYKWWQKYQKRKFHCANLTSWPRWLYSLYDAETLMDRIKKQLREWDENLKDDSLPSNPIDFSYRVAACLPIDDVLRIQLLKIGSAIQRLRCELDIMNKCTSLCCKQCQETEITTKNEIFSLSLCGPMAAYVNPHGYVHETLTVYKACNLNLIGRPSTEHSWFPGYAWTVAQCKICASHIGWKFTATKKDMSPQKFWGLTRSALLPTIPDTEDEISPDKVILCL
T6 sequence (Q16531 whole entry partner): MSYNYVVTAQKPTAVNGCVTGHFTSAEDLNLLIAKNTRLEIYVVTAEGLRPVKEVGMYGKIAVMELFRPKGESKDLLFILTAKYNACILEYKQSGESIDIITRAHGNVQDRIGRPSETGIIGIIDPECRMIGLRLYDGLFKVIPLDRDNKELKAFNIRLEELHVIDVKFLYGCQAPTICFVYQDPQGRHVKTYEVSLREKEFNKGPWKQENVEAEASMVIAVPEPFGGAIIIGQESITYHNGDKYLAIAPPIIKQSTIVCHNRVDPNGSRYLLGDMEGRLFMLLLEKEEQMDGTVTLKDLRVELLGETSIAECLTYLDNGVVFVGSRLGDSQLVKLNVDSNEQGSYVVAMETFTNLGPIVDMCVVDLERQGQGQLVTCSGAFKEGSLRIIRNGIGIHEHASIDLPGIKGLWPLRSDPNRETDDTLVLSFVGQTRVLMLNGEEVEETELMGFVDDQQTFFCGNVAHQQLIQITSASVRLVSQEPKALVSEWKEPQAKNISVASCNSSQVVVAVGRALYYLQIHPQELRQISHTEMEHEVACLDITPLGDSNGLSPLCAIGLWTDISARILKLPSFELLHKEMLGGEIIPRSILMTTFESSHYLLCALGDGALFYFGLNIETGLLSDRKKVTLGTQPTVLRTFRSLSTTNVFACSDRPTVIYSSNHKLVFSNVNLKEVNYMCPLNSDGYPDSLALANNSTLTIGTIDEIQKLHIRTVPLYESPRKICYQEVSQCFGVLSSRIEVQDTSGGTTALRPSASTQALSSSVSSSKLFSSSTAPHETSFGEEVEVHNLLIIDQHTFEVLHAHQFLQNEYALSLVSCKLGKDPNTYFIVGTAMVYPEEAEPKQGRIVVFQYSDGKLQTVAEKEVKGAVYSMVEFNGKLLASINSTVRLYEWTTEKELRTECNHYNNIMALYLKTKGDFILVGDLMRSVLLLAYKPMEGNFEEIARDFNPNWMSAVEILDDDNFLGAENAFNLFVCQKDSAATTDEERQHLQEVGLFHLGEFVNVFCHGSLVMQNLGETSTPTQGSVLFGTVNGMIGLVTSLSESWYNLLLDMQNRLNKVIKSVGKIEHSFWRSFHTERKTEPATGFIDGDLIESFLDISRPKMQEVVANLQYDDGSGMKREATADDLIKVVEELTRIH
T4 sequence (Q13422 whole entry): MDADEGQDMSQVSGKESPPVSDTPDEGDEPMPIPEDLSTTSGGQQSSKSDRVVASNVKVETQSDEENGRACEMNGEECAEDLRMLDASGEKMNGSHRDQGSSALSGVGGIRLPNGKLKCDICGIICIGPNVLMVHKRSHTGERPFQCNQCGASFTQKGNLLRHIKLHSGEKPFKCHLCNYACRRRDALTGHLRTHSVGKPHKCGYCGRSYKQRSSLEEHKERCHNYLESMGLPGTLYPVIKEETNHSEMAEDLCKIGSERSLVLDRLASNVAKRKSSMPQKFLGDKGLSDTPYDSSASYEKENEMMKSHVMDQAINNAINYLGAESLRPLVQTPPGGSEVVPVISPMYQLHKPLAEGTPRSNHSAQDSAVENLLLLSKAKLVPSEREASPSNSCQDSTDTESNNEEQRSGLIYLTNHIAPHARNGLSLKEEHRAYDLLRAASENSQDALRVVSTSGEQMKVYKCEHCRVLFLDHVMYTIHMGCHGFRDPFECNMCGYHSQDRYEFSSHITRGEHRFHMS
T4 sequence (Q96SW2 whole entry): as the sequence (Q96SW2 whole entry) above
T4 sequence (Q16531 whole entry partner): as the sequence (Q16531 whole entry partner) above
T2 sequence (Q9UKS7 whole entry): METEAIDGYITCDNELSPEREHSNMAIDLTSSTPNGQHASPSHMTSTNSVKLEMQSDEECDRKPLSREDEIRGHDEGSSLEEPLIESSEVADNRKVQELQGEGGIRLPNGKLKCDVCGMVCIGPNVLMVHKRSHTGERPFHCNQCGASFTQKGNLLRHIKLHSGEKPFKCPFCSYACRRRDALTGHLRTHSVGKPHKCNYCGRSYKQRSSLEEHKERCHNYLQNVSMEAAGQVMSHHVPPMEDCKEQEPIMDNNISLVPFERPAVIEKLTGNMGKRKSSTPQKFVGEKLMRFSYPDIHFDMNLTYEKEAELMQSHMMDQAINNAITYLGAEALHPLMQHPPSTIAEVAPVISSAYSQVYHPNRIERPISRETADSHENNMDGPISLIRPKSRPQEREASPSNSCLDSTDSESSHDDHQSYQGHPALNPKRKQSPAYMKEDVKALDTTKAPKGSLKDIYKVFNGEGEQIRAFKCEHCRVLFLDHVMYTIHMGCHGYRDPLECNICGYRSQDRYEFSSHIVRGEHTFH
T2 sequence (Q96SW2 whole entry): as the sequence (Q96SW2 whole entry) above
T2 sequence (Q16531 whole entry partner): as the sequence (Q16531 whole entry partner) above
T1 sequence (Q96SW2 whole entry): as the sequence (Q96SW2 whole entry) above
T5 sequence (Q9UKT9 whole entry): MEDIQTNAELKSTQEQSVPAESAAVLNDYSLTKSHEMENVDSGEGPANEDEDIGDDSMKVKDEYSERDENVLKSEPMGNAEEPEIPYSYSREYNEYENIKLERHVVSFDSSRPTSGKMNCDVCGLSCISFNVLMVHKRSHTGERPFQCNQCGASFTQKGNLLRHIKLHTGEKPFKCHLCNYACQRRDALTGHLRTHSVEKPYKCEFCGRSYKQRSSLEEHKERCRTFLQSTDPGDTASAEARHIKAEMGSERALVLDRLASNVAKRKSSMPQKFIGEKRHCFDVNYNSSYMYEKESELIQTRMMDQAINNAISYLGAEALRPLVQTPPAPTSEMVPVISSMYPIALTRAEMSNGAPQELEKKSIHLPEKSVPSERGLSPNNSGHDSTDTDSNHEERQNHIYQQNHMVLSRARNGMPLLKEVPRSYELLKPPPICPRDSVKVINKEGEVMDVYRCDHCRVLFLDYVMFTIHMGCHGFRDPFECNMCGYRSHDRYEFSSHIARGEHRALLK
T5 sequence (Q96SW2 whole entry): as the sequence (Q96SW2 whole entry) above
T5 sequence (Q16531 whole entry partner): as the sequence (Q16531 whole entry partner) above
T3 sequence (P48729 whole entry): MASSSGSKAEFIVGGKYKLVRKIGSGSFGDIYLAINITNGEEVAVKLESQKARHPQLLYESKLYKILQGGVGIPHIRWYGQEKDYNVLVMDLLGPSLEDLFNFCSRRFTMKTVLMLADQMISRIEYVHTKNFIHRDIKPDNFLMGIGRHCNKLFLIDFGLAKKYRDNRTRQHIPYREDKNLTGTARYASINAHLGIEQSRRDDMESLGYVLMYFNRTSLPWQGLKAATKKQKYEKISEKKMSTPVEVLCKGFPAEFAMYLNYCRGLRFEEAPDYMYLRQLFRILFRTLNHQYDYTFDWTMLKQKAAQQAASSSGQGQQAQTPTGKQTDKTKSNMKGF
T3 sequence (Q96SW2 whole entry): as the sequence (Q96SW2 whole entry) above
T3 sequence (Q16531 whole entry partner): as the sequence (Q16531 whole entry partner) above

Compound	inhibition at 0.5 µM [1]	inhibition at 2 µM [1]	GSPT1 substrate protein remaining % (GSPT1; [2])	IKZF2 substrate protein remaining % (IKZF2; [2])	CK1α substrate protein remaining % (CK1α; [2])	IKZF 1 substrate protein remaining % (IKZF1; [2])	IKZF3 substrate protein remaining % (IKZF3; [2])	Wee1 substrate protein remaining % (WEE1; [2])	GSPT1 substrate protein remaining % (GSPT1; [3])	IKZF2 substrate protein remaining % (IKZF2; [3])	CK1α substrate protein remaining % (CK1α; [3])	IKZF 1 substrate protein remaining % (IKZF1; [3])	IKZF3 substrate protein remaining % (IKZF3; [3])	Wee1 substrate protein remaining % (WEE1; [3])
O=C1CCC(N2Cc3c(CN4CCC(c5n[nH]c6cc(F)ccc56)CC4)cccc3C2=S)C(=O)N1 (stereo not drawn) [GT-08849, 3-(4-((4-(6-fluoro-1H-indazol-3-yl)piperidin-1-yl)methyl)-1-thioxoisoindolin-2-yl)piperidine-2,6-dione]	60 to 80%	80 to 100%	A (0% ≤ substrate protein remaining % ≤ 80%)	B (80%< substrate protein remaining %≤ 100%)	B (80%< substrate protein remaining %≤ 100%)	B (80%< substrate protein remaining %≤ 100%)	B (80%< substrate protein remaining %≤ 100%)	A (0% ≤ substrate protein remaining % ≤ 80%)						
O=C1CCC(N2Cc3c(CN4CCC(N5CCCc6cc(F)ccc65)CC4)cccc3C2=S)C(=O)N1 (stereo not drawn) [GT-08851, 3-(4-((4-(6-fluoro-3,4-dihydroquinolin-1(2H)-yl)piperidin-1-yl)methyl)-1-thioxoisoindolin-2-yl)piperidine-2,6-dione]	40 to 53%	60 to 80%	A (0% ≤ substrate protein remaining % ≤ 80%)	B (80%< substrate protein remaining %≤ 100%)	B (80%< substrate protein remaining %≤ 100%)	B (80%< substrate protein remaining %≤ 100%)	B (80%< substrate protein remaining %≤ 100%)	A (0% ≤ substrate protein remaining % ≤ 80%)						
O=C1CCC(N2Cc3c(CN4CCC(N5CCOc6cc(F)ccc65)CC4)cccc3C2=S)C(=O)N1 (stereo not drawn) [GT-08852, 3-(4-((4-(7-fluoro-2,3-dihydro-4H-benzo[b][1,4]oxazin-4-yl)piperidin-1-yl)methyl)-1-thioxoisoindolin-2-yl)piperidine-2,6-dione]	40 to 53%	80 to 100%							B (80%< substrate protein remaining %≤ 100%)	B (80%< substrate protein remaining %≤ 100%)	B (80%< substrate protein remaining %≤ 100%)	B (80%< substrate protein remaining %≤ 100%)	B (80%< substrate protein remaining %≤ 100%)	A (0% ≤ substrate protein remaining % ≤ 80%)
O=C1CCC(N2Cc3c(CN4CCC(c5cccc6c(F)cccc56)CC4)cccc3C2=S)C(=O)N1 (stereo not drawn) [GT-08855, 3-(4-((4-(5-fluoronaphthalen-1-yl)piperidin-1-yl)methyl)-1-thioxoisoindolin-2-yl)piperidine-2,6-dione]	30 to 40%	60 to 80%							A (0% ≤ substrate protein remaining % ≤ 80%)	B (80%< substrate protein remaining %≤ 100%)	B (80%< substrate protein remaining %≤ 100%)	B (80%< substrate protein remaining %≤ 100%)	B (80%< substrate protein remaining %≤ 100%)	A (0% ≤ substrate protein remaining % ≤ 80%)
O=C1CCC(N2Cc3c(CN4CCC(c5cccc6cnccc56)CC4)cccc3C2=S)C(=O)N1 (stereo not drawn) [GT-08857, 3-(4-((4-(isoquinolin-5-yl)piperidin-1-yl)methyl)-1-thioxoisoindolin-2-yl)piperidine-2,6-dione]	60 to 80%	80 to 100%							B (80%< substrate protein remaining %≤ 100%)	B (80%< substrate protein remaining %≤ 100%)	B (80%< substrate protein remaining %≤ 100%)	B (80%< substrate protein remaining %≤ 100%)	A (0% ≤ substrate protein remaining % ≤ 80%)	A (0% ≤ substrate protein remaining % ≤ 80%)
O=C1CCC(N2Cc3c(CN4CCC(c5ccnc6cc(F)ccc56)CC4)cccc3C2=S)C(=O)N1 (stereo not drawn) [GT-08858, 3-(4-((4-(7-fluoroquinolin-4-yl)piperidin-1-yl)methyl)-1-thioxoisoindolin-2-yl)piperidine-2,6-dione]	60 to 80%	80 to 100%							B (80%< substrate protein remaining %≤ 100%)	B (80%< substrate protein remaining %≤ 100%)	B (80%< substrate protein remaining %≤ 100%)	B (80%< substrate protein remaining %≤ 100%)	B (80%< substrate protein remaining %≤ 100%)	A (0% ≤ substrate protein remaining % ≤ 80%)
O=C1CCC(N2Cc3c(CN4CC(c5ccnc6cc(F)ccc56)C4)cccc3C2=S)C(=O)N1 (stereo not drawn) [GT-08860, 3-(4-((3-(7-fluoroquinolin-4-yl)azetidin-1-yl)methyl)-1-thioxoisoindolin-2-yl)piperidine-2,6-dione]	60 to 80%	80 to 100%							A (0% ≤ substrate protein remaining % ≤ 80%)	B (80%< substrate protein remaining %≤ 100%)	B (80%< substrate protein remaining %≤ 100%)	B (80%< substrate protein remaining %≤ 100%)	B (80%< substrate protein remaining %≤ 100%)	A (0% ≤ substrate protein remaining % ≤ 80%)
O=C1CCC(N2Cc3c(CN4CCN(c5ncnc6sccc56)CC4)cccc3C2=S)C(=O)N1 (stereo not drawn) [GT-08912, 3-(4-((4-(thieno[2,3-d]pyrimidin-4-yl)piperazin-1-yl)methyl)-1-thioxoisoindolin-2-yl)piperidine-2,6-dione]	60 to 80%	80 to 100%							B (80%< substrate protein remaining %≤ 100%)	B (80%< substrate protein remaining %≤ 100%)	B (80%< substrate protein remaining %≤ 100%)	B (80%< substrate protein remaining %≤ 100%)	B (80%< substrate protein remaining %≤ 100%)	A (0% ≤ substrate protein remaining % ≤ 80%)
Cc1csc2ncnc(N3CCN(Cc4cccc5c4CN(C4CCC(=O)NC4=O)C5=S)CC3)c12 (stereo not drawn) [GT-08913, 3-(4-((4-(5-methylthieno[2,3-d]pyrimidin-4-yl)piperazin-1-yl)methyl)-1-thioxoisoindolin-2-yl)piperidine-2,6-dione]	60 to 80%	80 to 100%							B (80%< substrate protein remaining %≤ 100%)	B (80%< substrate protein remaining %≤ 100%)	B (80%< substrate protein remaining %≤ 100%)	B (80%< substrate protein remaining %≤ 100%)	B (80%< substrate protein remaining %≤ 100%)	A (0% ≤ substrate protein remaining % ≤ 80%)
